In patent US20220325173A1, “RNA FLUORESCENT PROBE FOR RAPIDLY DISTINGUISHING CANCER TISSUE FROM NORMAL TISSUE BASED ON NUCLEOLAR MORPHOLOGICAL CHANGES” (SHANDONG UNIVERSITY, priority 2020, published 2022):

Assays:
[1] = tested on: cytoplasmic RNA and nucleoli in human mammary cancer tissue and normal mammary tissue; assay: Fluorescence staining of frozen sections of human mammary cancer tissue and its adjacent normal tissue
Text: Obtaining method: after the frozen sections of human mammary cancer tissue and its adjacent normal tissue are stained with CAPY-AP and Hoechst 33342, the tissue is irradiated with 488 nm and 405 nm lasers respectively under the confocal laser scanning microscope, and superposition images of two channels (blue channel: 420-450 nm, green channel: 500-600 nm) are obtained. The frozen sections of the same tissue are stained with H&E to obtain H&E staining images. Amongst, the enlarged images come from two box regions of fluorescent staining images of mammary cancer tissue.
(§1) The frozen sections of the mammary cancer tissue and its adjacent normal tissue from intraoperative pathological samples of breast cancer patients (Pathology No. 57977.18) were obtained from the department of pathology, Qilu Hospital of Shandong University. In order to stain, the frozen sections were immersed into a 10% EtOH PBS buffer solution with a 10 μM CAPY-AP and a 10 μM Hoechst 33342 for 10 min, and then observed under a confocal laser scanning microscope (the tissue was irradiated with 488 nm and 405 nm lasers respectively) to obtain fluorescence images. The fluorescence images were compared with the corresponding H&E images.
as §1, with “60551.18)” for “57977.18)”
as §1, with “61864.18)” for “57977.18)”

[2] = tested on: cytoplasmic RNA and nucleoli in SiHa cells; assay: Staining live SiHa cells with CAPY-AP, confocal laser scanning microscopy; type: cell-based; details: 5 μM CAPY-AP, 30 min, 488 nm laser, green channel 500-600 nm
Method: Obtaining method: the SiHa cells are incubated with CAPY-AP for 30 min, and then the cells are irradiated with a 488 nm laser under a confocal laser scanning microscope to obtain micrographs. FIG. 1a is the image of green channel at 500-600 nm from CAPY-AP excited by the 488 nm laser. FIG. 1B is a differential interference contrast (DIC) micrograph scanned by a bright field laser. FIG. 1c is the merge image of FIG. 1a and FIG. 1b.
SiHa cells were cultured in adherent conditions in a culture media containing 10% fetal bovine serum and incubated in a 37° C. and 5% CO2 saturated humidity incubator. The culture media was replaced every 2-3 days for passage once. […]
First, DMSO solution of a 5 mM CAPY-AP was prepared as a stock solution. […] After staining, the cover glass with cells was taken out, excess probes were washed off, the cover glass with the cell growth side facing down covers a glass slide, and the staining locations, fluorescence distribution and brightness changes of the cells were observed under a confocal laser scanning microscope (the cells were irradiated with a 488 nm laser).

RNA in SiHa cells = assay: RNase digestion assay: staining of RNase-treated fixed SiHa cells with CAPY-AP; type: cell-based; details: RNase 25 μg/mL 2 hours, then 5 μM CAPY-AP 30 min, 488 nm laser, green channel 500-600 nm
Text: Obtaining method: the fixed SiHa cells treated with RNase and then stained with CAPY-AP. Under the confocal laser scanning microscope, the cells are irradiated with the 488 nm laser to obtain micrographs. FIG. 2a is the image of a green channel at 500-600 nm from CAPY-AP excited by the 488 nm laser. FIG. 2b is a differential interference contrast (DIC) micrograph scanned by a bright field laser. FIG. 2c is the merge image of FIG. 2a and FIG. 2b.
Preparation of fixed cells: first, the cover glass covered with the SiHa cells prepared in Example 2 was immersed in a 4% paraformaldehyde solution for 30 min, and then 0.5%
Triton X-100 was used for permeation at room temperature for 2 min to obtain the fixed cells.
A group of the above fixed cells was taken out and digested in an incubator for 2 hours after RNase with a 25 μg/mL concentration was added, then washed with PBS 3 times and stained with a 5 μM CAPY-AP in a CO2 incubator for 30 min. The cover glass with stained cells was taken out, excess dyes were washed off, the cover glass with a cell growth side facing down covers a glass slide, and the staining locations, fluorescence distribution and brightness changes of the cells were observed under a confocal laser scanning microscope (the cells were irradiated with a 488 nm laser) and recorded.

[3] = 10 μM CAPY-AP with 10 μM Hoechst 33342, 10% EtOH PBS, 10 min, 488 nm and 405 nm lasers

In the case of `CCn1c2ccccc2c2cc(/C=C/c3cc[n+](CCCN)cc3)ccc21` [CAPY-AP, (E)-1-(3-aminopropyl)-4-(2-(9-ethyl-9H-carbazol-3-yl)vinyl)pyridine-1-ium dibromide], the “fluorescence distribution in frozen sections, Pathology No. 57977.18 (FIG. 3)” value [1, 3] is reported as “obvious green light distribution in cytoplasmic and nucleolar areas, while no fluorescence exists in extracellular matrices”, the “imaging of cytoplasmic RNA and nucleoli in frozen sections, Pathology No. 60551.18 (FIG. 4)” value [1, 3] is reported as “can specifically image the cytoplasmic RNA and nucleoli in the frozen sections of the human mammary pathological tissue” and the “imaging of cytoplasmic RNA and nucleoli in frozen sections, Pathology No. 61864.18 (FIG. 5)” value [1, 3] is reported as “can specifically image the cytoplasmic RNA and nucleoli in the frozen sections of the human mammary pathological tissue”. For the same compound, the “imaging of cytoplasmic RNA and nucleoli in frozen sections, summary of FIG. 3, FIG. 4 and FIG. 5” value ([1]; three pathology samples together, CAPY-AP and Hoechst 33342) was “can specifically image the cytoplasmic RNA and nucleoli in frozen sections of human mammary pathological tissue”, the “staining locations and fluorescence distribution in live SiHa cells (FIG. 1)” value [2] was “obvious green light distribution in cytoplasmic and nucleolar areas” and the “fluorescence of fixed SiHa cells after RNase treatment (FIG. 2)” value (RNA in SiHa cells) was “fluorescence in the nucleoli and cytoplasm is almost invisible”.
